Assay results: patent publication US20240226160A9, “ACTIVITY-INDUCIBLE FUSION PROTEINS HAVING A HEAT SHOCK PROTEIN 90 BINDING DOMAIN” (Seattle Children's Hospital d/b/a Seattle Children's …, priority 2021, published 2024)
Substitutions are numbered along the chain they refer to.

How the values were obtained:
huCD19CAR-EBD(4OHT) = assay: Anti-CD3zeta western blot with band quantification; assay type: cell-based; conditions: 500 nM, 24 hr incubation, vs 0 nM
Procedure: FIG. 26. Anti-zeta Western Blot evaluating huCD19CAR-EBD(4OHT) with differing Glycine linkers in 0 nM and 500 nM of 4OHT OR (Z)-endoxifen. Protein processing and expression of huCD19CAR-EBD with different linkers between the CAR and the EBD was evaluated using an anti-CD3zeta western blot analysis. Whole cell lysates were made for the huCD19CAR-EBD(4OHT) T cell lines with either a 1Glycline, 2Glycine or 3Glycine linker between the CAR and EBD domains in 0 nM and 500 nM 4OHT/(Z)-endoxifen drug conditions following a 24 hr incubation. Whole cell lysates were also made for the Mock T cell line and the CAR alone T cell line under the same conditions. The western blot was imaged and analyzed on the LiCOR Odyssey. Additionally, protein band quantification was performed using the LiCOR Odyssey. CAR zeta chain expression is observed for all CAR-1/2/3Glylinker-EBD lines in both the no drug and maximum drug conditions.

B7H3CAR-3Gly-EBD(4OHT) [1] = target: T1, B7H3CAR-3Gly-EBD(4OHT) (Homo sapiens, UniProt P03372, G400V/L544A/M543A); assay: Chromium release assay, specific cell lysis; assay type: cell-based
T1 construct: expressed in transfected cells; T cells by b52 and b55
T1 sequence (P03372 282-595 G400V/M543A/L544A): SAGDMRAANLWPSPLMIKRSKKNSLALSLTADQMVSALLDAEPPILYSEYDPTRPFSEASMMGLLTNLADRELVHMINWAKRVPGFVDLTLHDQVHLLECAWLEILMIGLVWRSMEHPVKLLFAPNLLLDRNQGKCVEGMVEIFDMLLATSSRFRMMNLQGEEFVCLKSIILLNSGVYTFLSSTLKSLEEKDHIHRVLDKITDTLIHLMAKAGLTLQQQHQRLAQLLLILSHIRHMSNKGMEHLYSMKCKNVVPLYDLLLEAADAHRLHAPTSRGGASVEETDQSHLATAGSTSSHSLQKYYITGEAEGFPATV
Procedure: FIG. 18. […] Specific cell lysis was evaluated using a chromium release assay. […] Following the 4 hr incubation the Perkin Elmer TopCount was used to quantify the amount of Cr51 released into each well as tumor lysis occurred.

[2] = target: T2, B7H3CAR-3Gly-EBD variants (Homo sapiens, UniProt P03372, G521R/L384M/M421G); conditions: B7H3CAR-3Gly-EBD(CMP8) vs K562+mCherry, drug added at 24 hrs
T2 sequence (P03372 282-595 L384M/M421G/G521R): T1 sequence (P03372 282-595 G400V/M543A/L544A) with L103M, V119G, M140G, G240R, A262M, A263L
Procedure: (31A) Incucyte Cytotoxicity Assay: B7H3CAR-3Gly-EBD variants. CD4 and CD8 T cells (mixed at a 1:1 ratio) expressing a either B7H3CAR-3Gly-EBD(4OHT), B7H3CAR-3Gly-EBD(CMP8), or B7H3CAR-3Gly-EBD(ES8) were either preincubated for 24 hrs with 500 nM inducer drug or not preincubated. These T cells were subsequently plated with CAR-target expressing tumor lines (K562, and/or Be2) constitutively expressing mCherry (for detection and quantification). […] Plates were placed inside of an Incucyte and imaged every 3-4 hours for several days. mCherry signal was then quantified and plotted as a function of time. […]
(32A-32C) CD4 and CD8 T cells (mixed at a 1:1 ratio) expressing either B7H3CAR-3Gly-EBD(4OHT), B7H3CAR-3Gly-EBD(CMP8), or B7H3CAR-3Gly-EBD(ES8) (were either preincubated for 24 hrs with 500 nM inducer drug or not preincubated (B7H3CAR-3Gly-EBD(4OHT) received 500 nM 4OHT, B7H3CAR-3Gly-EBD(CMP8) received 500 nM CMP8, B7H3CAR-3Gly-EBD(ES8) received 500 nM ES8). These T cells were subsequently plated with CAR-target expressing tumor lines (K562, and/or Be2) constitutively expressing mCherry (for detection and quantification). Tumors were plated at 10,000 per well, and co-culture was performed at a 4:1 ratio (T cell:tumor cell) with or without the appropriate drug at 500 nM. […]

B7H3CAR-3Gly-EBD(4OHT) [3] = target: T1, B7H3CAR-3Gly-EBD(4OHT); assay: Meso Scale Diagnostic cytokine release assay; assay type: cell-based; conditions: 24 hr drug culture 0-500 nM, 24 hr co-incubation with tumor lines
Procedure: FIGS. 19A, 19B. […] (20A and 20B) Cytokine release was evaluated using a Meso Scale Diagnostic assay. […] Following the 24 hr incubation the supernatant from each co-incubation was collected and run on the MESO QuickPlex SQ 120 instrument to ascertain the amount of cytokine released.

EBD(ES8) = target: T3, EBD(ES8) (Homo sapiens, UniProt P03372, E353A); assay: CD107a activation assay (flow cytometry MFI); assay type: cell-based; conditions: for CD107a response of EBD(ES8) to drug: 24 hr preconditioning, 4 hours co-culture
T3 sequence (P03372 282-595 E353A): T1 sequence (P03372 282-595 G400V/M543A/L544A) with E72A, V119G, A262M, A263L
Procedure: FIGS. 28A, 28B. (28A) CD107a activation assay: huCD19CAR-EBD(4OHT) linker variants vs K562+CD19t. […] To achieve this, T cells (including mock and constitutively active CAR controls) were preconditioned with target drug concentration(s) for 24 hrs, then exposed to a tumor line expressing their target antigen (CD19 or B7H3). After 4 hours of co-culture with target tumors at various drug concentrations, the T cells were assessed for a) activation and degranulation by staining for CD107a and b) cell surface CAR-EBD by staining for human scFv (which works for both B7H3CAR and huCD19CAR), then running on flow cytometry. MFI (median fluorescence intensity) was determined for each stain on each sample under each condition and plotted on a log scale of drug concentration. EC10 and EC90 (effective concentration 10% and 90%) were calculated in Graphpad Prism for CD107a expression and function as estimates for the drug concentration required for each construct to turn “on” or “off”. Positive and negative controls for each CAR are presented in the bar graph. […] EBD(4OHT) responds to 4-OHT and (Z)-endoxifen, but not to CMP8 or ES8. The responsiveness of degranulation to target antigen in the presence of inducer molecule is largely similar between the Gly linker variants. EBD(4OHT) is very sensitive to its intended inducer molecules, beginning to activate (EC10) at single nanomolar concentrations and becoming fully activated (EC90) at double digit nanomolar concentrations. […] Both EBD(CMP8) and EBD(ES8) respond to 4OHT.

B7H3 EBD(CMP8) CAR = target: T4, B7H3 EBD(CMP8) CAR (Homo sapiens, UniProt P03372, G521R/L384M/M421G); assay: Jurkat iSynPro eGFP:ffluc reporter assay (GFP by flow cytometry); assay type: cell-based
T4 construct: expressed in transfected cells; host or cells: clonal Jurkat iSynPro eGFP:ffluc reporter cell line (transduced)
T4 sequence (P03372 282-595 L384M/M421G/G521R): T1 sequence (P03372 282-595 G400V/M543A/L544A) with L103M, V119G, M140G, G240R, A262M, A263L
Procedure: FIG. 11. Design of B7H3 CAR EBD mutant study. […] Jurkat iSynPro lines included cJ10792: Jurkat iSynPro-GFP:ffluc; cJ13093: Jurkat iSynPro-GFP:ffluc+B7H3 CAR; cJ13094: Jurkat iSynPro-GFP:ffluc+B7H3 CAR EBD (4-OHT); and cJ13095: Jurkat iSynPro-GFP:ffluc+B7H3 CAR EBD (CMP8) with a K562 parental target. 4-OHT and CMP8 concentrations of 0 nM, 500 nM and 1000 nM were tested for each cell line.
FIG. 16. Design of activation curve study. The objective of the study was to examine activation curves of CAR EBD Jurkat iSynPro lines in an increasing presence of 4-OHT, (Z)-endoxifen, or CMP8.
FIG. 9 (top) depicts a schematic of Jurkat iSynPro eGFP:ffluc reporter cells. Jurkat iSynPro eGFP:ffluc reporter cells feature a Jurkat cell line lentivirally transduced to stably express a inducible synthetic promoter (iSynPro WO2018213332A1) regulating the expression of an enhanced green fluorescent protein (eGFP) fused to bioluminescent reporter firefly luciferase (ffluc). This line was then clonally selected by limiting dilution. […]
Jurkat iSynPro eGFP:ffluc assays are also depicted in FIG. 9 (bottom). […] At the 24 hr timepoint, cells were collected and evaluated by flow cytometry. Cells were initially stained for CD33 to gate out target cell lines before they were evaluated for GFP expression by positivity and/or mean fluorescence intensity (MFI). […]

## CC/C(=C(\c1ccc(O)cc1)c1ccc(OCCN(C)C)cc1)c1ccccc1 [4-OHT, 4-hydroxytamoxifen]
huCD19CAR-EBD(4OHT)
  increase in CAR-EBD protein expression (zeta chain band quantification): ~3 fold

## CC/C(=C(\c1ccc(O)cc1)c1ccc(OCCNC)cc1)c1ccccc1 [(Z)-endoxifen]
huCD19CAR-EBD(4OHT)
  increase in CAR-EBD protein expression (zeta chain band quantification): ~3 fold

## O=C1CCC2(Cc3ccc(Cl)cc3)Cc3cc(O)ccc3C2=C1c1ccc(OCCN2CCCCC2)cc1 (centres unmarked) [CMP8]
B7H3CAR-3Gly-EBD(4OHT) [1]; 500 nM
  specific lysis: 0%
B7H3CAR-3Gly-EBD(4OHT) [1]; 24 hr drug culture 0-500 nM, 4 hr co-incubation with Cr-51 tumor line
  regulation of CAR activity (specific cell lysis): is not regulated by
[2]
  change in tumor growth kinetics once activated: immediate
B7H3CAR-3Gly-EBD(4OHT) [3]
  regulation of CAR activity (cytokine release): is not regulated by
EBD(ES8)
  CD107a response of EBD(ES8) to drug: does not respond to
B7H3 EBD(CMP8) CAR; 0.49 nM of drug
  induction of expression at lowest drug level: still observed
B7H3 EBD(CMP8) CAR; K562 target, 24 hr
  response of EBD(CMP8) mutant (GFP induction): response

## C[C@]12CC[C@@H]3c4ccc(/C=C/C(=O)O)cc4CC[C@H]3[C@@H]1CC[C@@H]2O [ES8]
EBD(ES8)
  CD107a response of EBD(ES8) to drug: very sensitive to induction
EBD(ES8); CD107a
  maximum magnitude of induction: less than its induction with 4OHT
